What is called EC50 is the concentration at which the effect is half-maximal.

The record followed here is patent US20250066328A1, “PARP7 INHIBITORS” (Gilead Sciences, Inc., priority 2023, published 2025).

This assay concerns STAT1 (phosphorylated at Tyr701) in NCI-H1373 cells. As to the kind of experiment: Phospho-STAT1 (Tyr701) LANCE Ultra TR-FRET detection assay in NCI-H1373 cells. Format: cell-based. The conditions noted are these: Homo sapiens, NCI-H1373, 48 h, 48 hours incubation, induction of pSTAT1, normalized to 10 uM positive control and DMSO, 4-parameter fit, read-out: NH1373 pSTAT1 EC50. As for the experimental part:
Phospho-STAT1 (Tyr701 LANCE Ultra TR-FRET Detection Assay
LANCE Ultra phospho-STAT1 (Tyr701) kits are designed for the detection of phosphorylated STAT1 in cell lysates using a simple, homogeneous LANCE Ultra sandwich assay (Cat. #TRF4028M). This assay is intended for assessing compound induction of endogenous levels of cellular STAT1 (phosphorylated at Tyr701) in NCI-H1373 cells. The NCI-H1373 cells are cultured in RPMI 1640 media containing 10% heat inactivated FBS, GlutaMAX, 1% Penicillin-Streptomycin. An Echo acoustic liquid handler is used to transfer 60 nanoliters of compound dilutions using the Echo Qualified, 384-well polypropylene microplate clear flat bottom source plates into a Greiner (#781080) cell culture microplate. NCI-H1373 cells are seeded into these compound-spotted culture plates at 30,000 cells/well in a 60 uL volume in growth media. The plates are incubated in a 5% CO2 humidified incubator at 37° C. for 48 hours. […] Briefly, […] of supplemented lysis buffer is added to each well and allowed to shake for 1 hour at 400 rpm. Next, 5 ul of remixed antibody solutions (vol/vol) prepared in detection buffer are added to each well and allowed to incubate at room temperature overnight. After spinning the plate down at 300 rpm for 1 min, the plate is read on an EnVision plate reader set up for Eu^3+ Cryptate and fluorescence emission is measured at two different wavelengths (665 nm and 620 nm). The HTRF ratio is then calculated ([…]) for each well to determine the amount of pSTAT1 in the cell lysate, and the data is then normalized to 10 uM (S)-5-((1-(3-oxo-3-(4-(5-(trifluoromethyl)pyrimidin-2-yl)piperazin-1-yl)propoxy)propan-2-yl)amino)-4-(trifluoromethyl)pyridazin-3(2H)-one positive and DMSO negative controls. The values were then plotted as a function of compound concentration and a 4-parameter fit was applied to derive the EC50 values.
For orientation: Time-resolved FRET reads energy transfer from a long-lived donor to a nearby acceptor.
As to `C[C@@H](C[C@@H](F)Cn1ccc2cc(-c3ncc([C@@](C)(O)C(F)F)cn3)c(F)cc2c1=O)Nc1cn[nH]c(=O)c1C(F)(F)F` [Example 86], the EC50 is 10.1 nM.

For `C[C@@H](C[C@@H](F)Cn1ccc2cc(-c3ncc([C@](C)(O)C(F)F)cn3)c(F)cc2c1=O)Nc1cn[nH]c(=O)c1C(F)(F)F` [Example 87], the EC50 is 5.36 nM.

In the case of `C[C@@H](C[C@@H](F)Cn1ccc2cc(-c3ncc(C(C)(C)C)cn3)c(F)cc2c1=O)Nc1cn[nH]c(=O)c1C(F)(F)F` [Example 88], the EC50 amounted to 1.29 nM.

For `C[C@@H](C[C@@H](F)Cn1ccc2cc(-c3ncc4c(n3)NC(=O)C4(C)C)c(F)cc2c1=O)Nc1cn[nH]c(=O)c1C(F)(F)F` [Example 89], the 50% effective concentration (EC50) is 12 nM.

As to `C[C@@H](C[C@@H](F)Cn1ccc2cc(-c3ncc4c(n3)COC4(C)C)c(F)cc2c1=O)Nc1cn[nH]c(=O)c1C(F)(F)F` [Example 90], the EC50 came to 4.33 nM.

With `C[C@@H](C[C@@H](F)Cn1ccc2cc(-c3cc4c(cn3)C(F)(F)CC4)c(F)cc2c1=O)Nc1cn[nH]c(=O)c1C(F)(F)F` [Example 91], the 50% effective concentration (EC50) worked out at 1.69 nM.

With `C[C@@H](C[C@@H](F)Cn1ccc2cc(-c3ncc([C@@H](F)CF)cn3)c(F)cc2c1=O)Nc1cn[nH]c(=O)c1C(F)(F)F` [Example 92], the EC50 is 1.89 nM.

For the compound `C[C@@H](C[C@@H](F)Cn1ccc2cc(-c3ncc([C@H](F)CF)cn3)c(F)cc2c1=O)Nc1cn[nH]c(=O)c1C(F)(F)F` [Example 93], the EC50 came out at 1000 nM.

Turning to `C[C@@H](C[C@@H](F)Cn1ccc2cc(-c3ncc(C(F)CF)cn3)c(F)cc2c1=O)Nc1cn[nH]c(=O)c1C(F)(F)F` (stereo partly shown) [Example 94], the EC50 stood at 4.58 nM.

Turning to `C[C@@H](C[C@@H](F)Cn1ccc2cc(-c3ncc(C4CC4)cn3)c(F)cc2c1=O)Nc1cn[nH]c(=O)c1C(F)(F)F` [Example 95], the EC50 is 1.36 nM.

As for `C[C@@H](C[C@@H](F)Cn1ccc2cc(-c3ncc(C(C)(C)F)cn3)c(F)cc2c1=O)Nc1cn[nH]c(=O)c1C(F)(F)F` [Example 96], the EC50 amounted to 1.61 nM.

With `C[C@@H](C[C@@H](F)Cn1ccc2cc(-c3ncc(OC(F)F)cn3)c(F)cc2c1=O)Nc1cn[nH]c(=O)c1C(F)(F)F` [Example 97], the EC50 turned out to be 0.97 nM.

Consider `C[C@@H](C[C@@H](F)Cn1ccc2cc(-c3ncc(C(C)(F)F)cn3)c(F)c(F)c2c1=O)Nc1cn[nH]c(=O)c1C(F)(F)F` [Example 98], for which the EC50 worked out at 0.97 nM.

Consider `COc1cnc(-c2cc3ccn(C[C@H](F)C[C@H](C)Nc4cn[nH]c(=O)c4C(F)(F)F)c(=O)c3c(F)c2F)nc1` [Example 99], for which the EC50 was 1.06 nM.

Turning to `C[C@@H](C[C@@H](F)Cn1ccc2cc(-c3ncc(C(F)F)cn3)c(F)c(F)c2c1=O)Nc1cn[nH]c(=O)c1C(F)(F)F` [Example 100], the EC50 was determined as 1.05 nM.

For `C[C@@H](C[C@@H](F)Cn1ccc2cc(-c3ncc(C(F)F)c(N)n3)c(F)c(F)c2c1=O)Nc1cn[nH]c(=O)c1C(F)(F)F` [Example 101], the EC50 came out at 4.36 nM.

Turning to `C[C@@H](C[C@@H](F)Cn1ccc2cc(-c3ncco3)c(F)cc2c1=O)Nc1cn[nH]c(=O)c1C(F)(F)F` [Example 102], the EC50 was 170 nM.

Regarding `C[C@@H](C[C@@H](F)Cn1ccc2cc(-c3nccs3)c(F)cc2c1=O)Nc1cn[nH]c(=O)c1C(F)(F)F` [Example 103], the concentration for a half-maximal effect (EC50) stood at 138 nM.

In the case of `C[C@@H](C[C@@H](F)Cn1ccc2cc(-c3cnccn3)c(F)cc2c1=O)Nc1cn[nH]c(=O)c1C(F)(F)F` [Example 104], the EC50 is 36.4 nM.

On to `C[C@@H](C[C@@H](F)Cn1cnc2cc(-c3ncc(C(C)(F)F)cn3)c(F)cc2c1=O)Nc1cn[nH]c(=O)c1C(F)(F)F` [Example 107], for which the EC50 was 2.52 nM.

With `C[C@@H](C[C@@H](F)Cn1ccc2cc(-c3ncc(F)cn3)c(F)cc2c1=O)Nc1cn[nH]c(=O)c1C(F)(F)F` [Example 108], the EC50 stood at 2.9 nM.

On to `C[C@@H](C[C@@H](F)Cn1ccc2cc(-c3ncccn3)c(F)cc2c1=O)Nc1cn[nH]c(=O)c1C(F)(F)F` [Example 109], for which the EC50 came out at 5.63 nM.

On to `Cc1cnc(-c2cc3ccn(C[C@H](F)C[C@H](C)Nc4cn[nH]c(=O)c4C(F)(F)F)c(=O)c3cc2F)nc1` [Example 110], for which the EC50 turned out to be 1.11 nM.

Consider `CC(O)c1cnc(-c2cc3ccn(C[C@H](F)C[C@H](C)Nc4cn[nH]c(=O)c4C(F)(F)F)c(=O)c3cc2F)nc1` (stereo partly shown) [Example 111], for which the EC50 came to 4.64 nM.

Turning to `C[C@@H](C[C@@H](F)Cn1ccc2cc(-c3ncc4c(n3)NCCO4)c(F)cc2c1=O)Nc1cn[nH]c(=O)c1C(F)(F)F` [Example 113], the EC50 is 1.94 nM.

As for `[2H]C([2H])([2H])Oc1cnc(-c2cc3ncn(C[C@H](F)C[C@H](C)Nc4cn[nH]c(=O)c4C(F)(F)F)c(=O)c3cc2F)nc1` [Example 115], the EC50 is 7.27 nM.

As to `CC(C[C@H](C)Nc1cn[nH]c(=O)c1C(F)(F)F)Cn1ccc2cc(-c3ncc(C(F)(F)F)cn3)c(F)cc2c1=O` (stereo partly drawn) [Example 116, 7-fluoro-2-((4S)-2-methyl-4-((6-oxo-5-(trifluoromethyl)-1,6-dihydropyridazin-4-yl)amino)pentyl)-6-(5-(trifluoromethyl)pyrimidin-2-yl)isoquinolin-1(2H)-one], the EC50 was found to be 89.9 nM.

Turning to `C[C@@H](C[C@@H](F)CN1Cc2cc(-c3ncc(C(F)(F)F)cn3)c(F)cc2C1=O)Nc1cn[nH]c(=O)c1C(F)(F)F` [Example 117, 6-fluoro-2-[(2R,4S)-2-fluoro-4-[[6-oxo-5-(trifluoromethyl)-1H-pyridazin-4-yl]amino]pentyl]-5-[5-(trifluoromethyl)pyrimidin-2-yl]isoindolin-1-one], the EC50 came to 11.8 nM.

`CC[C@@H](C[C@@H](F)Cn1ccc2cc(-c3ncc(C(F)(F)F)cn3)c(F)cc2c1=O)Nc1cn[nH]c(=O)c1C(F)(F)F` [Example 118, 7-fluoro-2-((2R,4S)-2-fluoro-4-((6-oxo-5-(trifluoromethyl)-1,6-dihydropyridazin-4-yl)amino)hexyl)-6-(5-(trifluoromethyl)pyrimidin-2-yl)isoquinolin-1(2H)-one]: the EC50 worked out at 2.18 nM.

For the compound `O=c1[nH]ncc(O[C@@H](CCCn2ccc3cc(-c4ncc(C(F)(F)F)cn4)c(F)cc3c2=O)COC(F)F)c1C(F)(F)F` [Example 120], the EC50 was 1000 nM.

Take `CC(C)(O)c1cnc(-c2cc3ccn(C[C@H](F)C[C@H](COC(F)F)Oc4cn[nH]c(=O)c4C(F)(F)F)c(=O)c3cc2F)nc1` [Example 122]: the EC50 worked out at 1.97 nM.

For `O=c1[nH]ncc(N[C@@H](CO)C[C@@H](F)Cn2ccc3cc(-c4ncc(C(F)(F)F)cn4)c(F)cc3c2=O)c1C(F)(F)F` [Example 123, 7-fluoro-2-((2R,4R)-2-fluoro-5-hydroxy-4-((6-oxo-5-(trifluoromethyl)-1,6-dihydropyridazin-4-yl)amino)pentyl)-6-(5-(trifluoromethyl)pyrimidin-2-yl)isoquinolin-1(2H)-one], the EC50 is 16.2 nM.

Regarding `O=c1[nH]ncc(N[C@@H](CO)C[C@@H](F)Cn2ccc3cc(-c4ncc(Cl)cn4)c(F)cc3c2=O)c1C(F)(F)F` [Example 124], the EC50 is 11.1 nM.

`O=c1[nH]ncc(N[C@@H](CO)C[C@@H](F)Cn2ccc3cc(-c4ncc(C(F)F)cn4)c(F)cc3c2=O)c1C(F)(F)F` [Example 125]: the EC50 was found to be 41.2 nM.

As for `O=c1[nH]ncc(NC(COC(F)F)C[C@@H](F)Cn2ccc3cc(-c4ncc(C(F)(F)F)cn4)c(F)cc3c2=O)c1C(F)(F)F` (stereo partly drawn) [Example 126, 2-[(2R)-5-(difluoromethoxy)-2-fluoro-4-[[6-oxo-5-(trifluoromethyl)-1H-pyridazin-4-yl]amino]pentyl]-7-fluoro-6-[5-(trifluoromethyl)pyrimidin-2-yl]isoquinolin-1-one], the EC50 came out at 3.3 nM.

Consider `Nc1nc(-c2cc3ccn(CC(F)CC(COC(F)F)Nc4cn[nH]c(=O)c4C(F)(F)F)c(=O)c3cc2F)ncc1C(F)F` (stereo not shown) [Example 127], for which the EC50 came to 6.55 nM.

For the compound `COc1cnc(-c2cc3ccn(CC(F)CC(COC(F)F)Nc4cn[nH]c(=O)c4C(F)(F)F)c(=O)c3cc2F)nc1` (stereo not shown) [Example 128], the EC50 turned out to be 3.08 nM.

For the compound `CC(C)(O)c1cnc(-c2cc3ccn(CC(F)CC(COC(F)F)Nc4cn[nH]c(=O)c4C(F)(F)F)c(=O)c3cc2F)nc1` (stereo not shown) [Example 129], the EC50 was 8.24 nM.

On to `O=c1[nH]ncc(NC(COC(F)F)CC(F)Cn2ccc3cc(-c4ncc(C(F)F)cn4)c(F)cc3c2=O)c1C(F)(F)F` (stereo not shown) [Example 130], for which the EC50 was 2.24 nM.

For the compound `CC(F)(F)c1cnc(-c2cc3ccn(CC(F)CC(COC(F)F)Nc4cn[nH]c(=O)c4C(F)(F)F)c(=O)c3cc2F)nc1` (stereo not shown) [Example 131], the EC50 amounted to 5.34 nM.
